Source: US8835472B2, “Compounds, pharmaceutical compositions and uses thereof” (Boehringer Ingelheim International GmbH, priority 2010, dated 2014)

target: human ACC2 (Homo sapiens (Human), UniProt O00763); assay: ACC2 assay, spectrophotometric 384 well assay (NADH-linked, coupled lactate dehydrogenase/pyruvate kinase reaction); assay type: biochemical; conditions: hACC2 construct lacking the 128 N-terminal amino acids; 25° C., 340 nm over 15 minutes
Summary of the method: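 Kinetic NADH-linked assay (pyruvate kinase/lactate dehydrogenase coupling) with baculovirus-expressed hACC2 missing its first 128 amino acids. Started with 500 μM ATP and 200 μM each NADH and acetyl-CoA; slope followed 15 min at 25 °C, pH 7.5. No-acetyl-CoA wells define 0%; IC50 by nonlinear regression.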

human ACC2, sequence (O00763 129-2458): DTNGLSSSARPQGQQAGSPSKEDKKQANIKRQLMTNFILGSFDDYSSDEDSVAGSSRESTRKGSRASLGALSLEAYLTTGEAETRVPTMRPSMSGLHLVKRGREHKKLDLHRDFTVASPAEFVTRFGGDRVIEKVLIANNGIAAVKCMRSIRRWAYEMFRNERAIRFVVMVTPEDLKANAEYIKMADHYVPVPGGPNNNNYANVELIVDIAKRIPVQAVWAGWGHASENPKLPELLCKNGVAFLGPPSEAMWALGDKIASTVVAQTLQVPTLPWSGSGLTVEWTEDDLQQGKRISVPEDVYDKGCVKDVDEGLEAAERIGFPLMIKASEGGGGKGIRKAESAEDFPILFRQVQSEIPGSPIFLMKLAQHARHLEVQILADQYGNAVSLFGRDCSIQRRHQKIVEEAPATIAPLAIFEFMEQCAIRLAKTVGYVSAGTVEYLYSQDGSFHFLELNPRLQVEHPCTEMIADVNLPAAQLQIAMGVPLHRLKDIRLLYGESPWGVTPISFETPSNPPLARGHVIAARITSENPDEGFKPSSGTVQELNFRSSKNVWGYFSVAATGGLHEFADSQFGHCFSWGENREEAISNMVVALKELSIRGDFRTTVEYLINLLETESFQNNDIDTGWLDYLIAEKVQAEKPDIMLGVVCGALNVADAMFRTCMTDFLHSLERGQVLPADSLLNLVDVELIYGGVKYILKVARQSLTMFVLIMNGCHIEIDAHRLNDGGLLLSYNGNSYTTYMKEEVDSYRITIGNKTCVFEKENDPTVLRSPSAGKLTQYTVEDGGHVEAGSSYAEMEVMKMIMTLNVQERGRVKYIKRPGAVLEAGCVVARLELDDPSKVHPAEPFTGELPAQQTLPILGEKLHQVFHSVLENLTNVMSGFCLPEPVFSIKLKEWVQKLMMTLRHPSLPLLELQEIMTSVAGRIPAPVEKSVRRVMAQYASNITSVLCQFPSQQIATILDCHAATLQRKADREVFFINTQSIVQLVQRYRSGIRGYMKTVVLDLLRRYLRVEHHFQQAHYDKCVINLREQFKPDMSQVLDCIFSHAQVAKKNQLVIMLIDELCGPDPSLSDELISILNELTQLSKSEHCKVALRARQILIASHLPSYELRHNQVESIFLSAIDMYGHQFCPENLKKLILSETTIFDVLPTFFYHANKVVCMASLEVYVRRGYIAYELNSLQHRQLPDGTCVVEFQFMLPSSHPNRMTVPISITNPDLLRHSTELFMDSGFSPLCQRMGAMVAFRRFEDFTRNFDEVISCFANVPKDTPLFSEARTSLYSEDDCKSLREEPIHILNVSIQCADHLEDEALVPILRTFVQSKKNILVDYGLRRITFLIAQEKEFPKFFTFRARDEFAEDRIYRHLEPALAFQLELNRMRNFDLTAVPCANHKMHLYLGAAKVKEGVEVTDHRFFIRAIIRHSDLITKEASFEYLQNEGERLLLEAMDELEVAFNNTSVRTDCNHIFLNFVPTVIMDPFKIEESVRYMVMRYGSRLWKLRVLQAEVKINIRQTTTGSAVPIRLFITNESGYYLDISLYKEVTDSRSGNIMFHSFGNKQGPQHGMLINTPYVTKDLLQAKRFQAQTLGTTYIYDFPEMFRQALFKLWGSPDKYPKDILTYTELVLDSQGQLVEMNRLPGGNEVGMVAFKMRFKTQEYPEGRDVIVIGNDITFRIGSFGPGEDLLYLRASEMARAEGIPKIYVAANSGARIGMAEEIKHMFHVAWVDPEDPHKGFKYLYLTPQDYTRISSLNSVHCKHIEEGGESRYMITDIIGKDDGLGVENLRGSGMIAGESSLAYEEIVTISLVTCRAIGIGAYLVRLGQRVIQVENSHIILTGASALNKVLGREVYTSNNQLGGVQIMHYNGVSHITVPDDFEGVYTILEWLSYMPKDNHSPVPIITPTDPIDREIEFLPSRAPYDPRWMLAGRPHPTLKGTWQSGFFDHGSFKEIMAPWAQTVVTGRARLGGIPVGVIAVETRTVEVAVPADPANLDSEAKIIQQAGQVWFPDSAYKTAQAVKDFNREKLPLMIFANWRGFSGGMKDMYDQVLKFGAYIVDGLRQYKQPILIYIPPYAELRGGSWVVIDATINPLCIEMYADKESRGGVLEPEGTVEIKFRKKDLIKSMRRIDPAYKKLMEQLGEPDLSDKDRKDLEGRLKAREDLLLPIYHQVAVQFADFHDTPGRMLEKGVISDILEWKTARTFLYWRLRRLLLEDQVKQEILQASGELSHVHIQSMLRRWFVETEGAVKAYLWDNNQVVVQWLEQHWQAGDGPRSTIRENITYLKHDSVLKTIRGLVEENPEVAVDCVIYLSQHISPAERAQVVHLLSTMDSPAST

Structure (SMILES)	IC50
COc1ccc(C#Cc2ccc(CC(C)NC(=O)C3CC3)cc2)cc1 (centres unmarked) [Example 2.56]	960 nM
CC(=O)NC(C)Cc1ccc(C#Cc2cccc(C(C)=O)c2)cc1 (centres unmarked) [Example 1.23]	1000 nM
CC(=O)NC(C)Cc1ccc(C#Cc2ccnc(Oc3ccccc3)c2)cc1 (centres unmarked) [Example 2.98]	150 nM
CC(=O)NC(C)Cc1ccc(C#Cc2ccc(C(C)C)cc2)cc1 (centres unmarked) [Example 1.22]	290 nM
COc1ccc(C#Cc2ccc(CC(C)NC(=O)C3CC3)cc2)cc1OC (centres unmarked) [Example 2.71]	3400 nM
CC(=O)NC(C)Cc1ccc(C#Cc2ccn(C(C)C)c(=O)c2)cc1 (centres unmarked) [Example 2.84]	5800 nM
CC(=O)NC(C)Cc1ccc(C#Cc2cccc(OC(F)F)c2)cc1 (centres unmarked) [Example 1.7]	4900 nM
COc1ccc(C#Cc2ccc(CC(C)NC(C)=O)cc2)cn1 (centres unmarked) [Example 2.22]	720 nM
CC(=O)NC(C)Cc1ccc(C#Cc2ccc(C(=O)N3CCOCC3)cc2)cc1 (centres unmarked) [Example 1.10]	5500 nM
CCCCOc1cc(C#Cc2ccc(CC(C)NC(C)=O)cc2)ccn1 (centres unmarked) [Example 2.96]	130 nM
CCCOc1ccc(C#Cc2ccc(C(C)(C)CNC(C)=O)cc2)cn1 [Example 2.35]	130 nM
CC(=O)NC(C)Cc1ccc(C#Cc2ccc(OC3CCCC3)nc2)cc1 (centres unmarked) [Example 2.25]	170 nM
CC(=O)NC(C)c1ccc(C#Cc2ccc(OC3CCCC3)cc2)cc1 (centres unmarked) [Example 2.52]	190 nM
CC(=O)NC(C)Cc1ccc(C#Cc2ccc(C(=O)N3CCCC3)c(C)c2)cc1 (centres unmarked) [Example 1.18]	990 nM
CC(=O)NC(C)Cc1ccc(C#Cc2ccc3c(c2)CCC3=O)cc1 (centres unmarked) [Example 2.76]	5800 nM
COCCn1ccc(C#Cc2ccc(CC(C)NC(C)=O)cc2)cc1=O (centres unmarked) [Example 2.83]	17700 nM
COC(=O)c1ccc(C#Cc2ccc(CC(C)NC(C)=O)cc2)o1 (centres unmarked) [Example 3.17]	880 nM
CC(=O)NC(C)Cc1ccc(C#Cc2c(C)noc2C)cc1 (centres unmarked) [Example 2.106]	8200 nM
COc1cc(C#Cc2ccc(CC(C)NC(C)=O)cc2)ccn1 (centres unmarked) [Example 2.94]	260 nM
CC(=O)NC(C)(C)c1ccc(C#Cc2ccnc(OC(C)C)c2)cc1 [Example 2.38]	10100 nM
CC(=O)NC(C)c1ccc(C#Cc2ccc3c(c2)CCO3)cc1 (centres unmarked) [Example 2.45]	250 nM
CC(=O)NC(C)Cc1ccc(C#Cc2ccc(-c3ccc(F)cc3)cn2)cc1 (centres unmarked) [Example 1.16]	120 nM
CC(=O)NC(C)Cc1ccc(C#Cc2ccc(Cl)c(C#N)c2)cc1 (centres unmarked) [Example 3.6]	2300 nM
CC(=O)NC(C)Cc1ccc(C#Cc2ccnc(OCc3ccccc3)c2)cc1 (centres unmarked) [Example 3.9]	260 nM
CC(=O)NC(C)Cc1ccc(C#Cc2ccc(CCO)cc2)cc1 (centres unmarked) [Example 2.18]	2200 nM
CC(=O)NC(C)Cc1ccc(C#Cc2ccnc(Oc3cncnc3)c2)cc1 (centres unmarked) [Example 2.91]	400 nM
COc1cc(C#Cc2ccc(CC(C)NC(C)=O)cc2)ccc1Cl (centres unmarked) [Example 3.3]	1300 nM
COc1ccc(C#Cc2ccc(C(C)NC(C)=O)cc2)cc1 (centres unmarked) [Example 2.104]	1500 nM

More lines, now with the values ahead:

IC50	Structure (SMILES)
390 nM	CC(=O)NC(C)Cc1ccc(C#Cc2ccnc(N3CCC(C)(C)C3)n2)cc1 (centres unmarked) [Example 11.24]
930 nM	CCOc1ccc(C#Cc2ccc(CC(C)NC(=O)c3ccncc3)cc2)cc1 (centres unmarked) [Example 4.22]
160 nM	CCC(C)Nc1ncc(C#Cc2ccc(CC(C)NC(C)=O)cc2)cn1 (centres unmarked) [15.1]
430 nM	CCOc1ccc(C#Cc2ccc(CC(C)NC(=O)c3ocnc3C)cc2)cc1 (centres unmarked) [Example 4.71]
160 nM	CC(=O)NC(C)Cc1ccc(C#Cc2ccc(OC3CCOCC3)cc2)cc1 (centres unmarked) [Example 9.12]
240 nM	CC(=O)NC(C)Cc1ccc(C#Cc2ccc(OCC(F)F)cc2)cc1 (centres unmarked) [Example 9.22]
510 nM	CCOc1ccc(C#Cc2ccc(CC(C)NC(=O)C3(C)COC3)cc2)cc1 (centres unmarked) [Example 4.51]
400 nM	CC(=O)N[C@@H](C)Cc1ccc(C#Cc2ccc(OCC(C)C)cc2)cc1 [Example 23.3]
810 nM	CC(CNC(=O)C1CC1)c1ccc(C#Cc2cnc(OC3CCC3)nc2)cc1 (centres unmarked) [Example 32.4]
550 nM	CC(=O)N[C@@H](C)c1ccc(C#Cc2cnc(OCCC(F)(F)F)nc2)cc1 [Example 12.64]
190 nM	CC(=O)NC(C)Cc1ccc(C#Cc2cnc(N3CCC4(CC4)C3)nc2)cc1 (centres unmarked) [Example 13.72]
1300 nM	COc1ccc(C#Cc2ccc(CCC(C)NC(C)=O)cc2)cn1 (centres unmarked) [Example 14.8]
310 nM	CCOc1ccc(C#Cc2ccc(CC(C)NC(=O)OC)cc2)cc1 (centres unmarked) [Example 29.2]
160 nM	CCCOc1ccc(C#Cc2ccc(C(C)CNC(=O)N(C)C)cc2)cc1 (centres unmarked) [Example 33.1, 1,1-Dimethyl-3-{2-[4-(4-propoxy-phenylethynyl)-phenyl]-propyl}-urea]
30000 nM	CCOc1ccc(C#Cc2ccc(C(C)NC(=O)Nc3ccc(N(C)C)cc3)cc2)cc1 (centres unmarked) [Example 6.1]
2700 nM	CC(=O)NC(C)Cc1ccc(C#Cc2ccnc(Nc3ccccc3)n2)cc1 (centres unmarked) [Example 11.41]
6500 nM	CC(=O)NC(C)Cc1ccc(C#Cc2cccc(C(=O)N(C)CCO)c2)cc1 (centres unmarked) [Example 8.22]
50 nM	CC(=O)NC(C)Cc1ccc(C#Cc2ccc(OCC3CC3(F)F)cc2)cc1 (centres unmarked) [Example 9.40]
780 nM	CCOc1ccc(C#Cc2ccc(CC(C)NC(=O)CS(C)(=O)=O)cc2)cc1 (centres unmarked) [Example 4.15]
90 nM	CC(=O)NC(C)Cc1ccc(C#Cc2cnc(OC3CCC3)nc2)cc1 (centres unmarked) [Example 12.12]

IC50	Structure (SMILES)
2400 nM	CCC(C)NC(=O)c1cccc(C#Cc2ccc(CC(C)NC(C)=O)cc2)c1 (centres unmarked) [Example 8.35]
1900 nM	CC(=O)NC(C)Cc1ccc(C#Cc2ccc(C(=O)N3CCC(C)(C)CC3)cc2)cc1 (centres unmarked) [Example 8.16]
130 nM	CC(=O)NC(C)Cc1ccc(C#Cc2cnc(NC3CC3)nc2)cc1 (centres unmarked) [Example 13.78]
7100 nM	CC(=O)NC(C)Cc1ccc(C#Cc2ccnc(OC(C)C)n2)cc1 (centres unmarked) [Example 12.18]
230 nM	CCNc1ncc(C#Cc2ccc(CC(C)NC(C)=O)cc2)cn1 (centres unmarked) [Example 13.13]
320 nM	CC(=O)NC(C)Cc1ccc(C#Cc2cnc(OCCc3ccccc3)nc2)cc1 (centres unmarked) [Example 12.32]
1600 nM	CCC(CC)Oc1ccc(C#Cc2ccc(CC(C)NC(=O)C3CC3)cc2)cc1 (centres unmarked) [Example 14.33]
290 nM	CCC(=O)NCC(C)c1ccc(C#Cc2cnc(OC3CCC3)nc2)cc1 (centres unmarked) [Example 4.78]
180 nM	CC(=O)NC(C)Cc1ccc(C#Cc2ccc(OCC3(C)CC3)cc2)cc1 (centres unmarked) [Example 9.11]
910 nM	CC(Cc1ccc(C#Cc2cnc(N3CCCCC3)nc2)cc1)NC(=O)C1CC1 (centres unmarked) [Example 13.45]
1500 nM	CC(=O)NC(C)Cc1ccc(C#Cc2cccc(C(=O)NC3CCCC3)c2)cc1 (centres unmarked) [Example 8.26]
120 nM	CCCOc1cc(C#Cc2ccc(CCC(C)NC(C)=O)cc2)ccn1 (centres unmarked) [Example 14.16]
4500 nM	CC(=O)NC(C)Cc1ccc(C#Cc2cccc(C(=O)NCC3CCCO3)c2)cc1 (centres unmarked) [Example 8.29]
150 nM	CC(=O)NC(C)Cc1ccc(C#Cc2cnc(NC(C)C3CC3)nc2)cc1 (centres unmarked) [Example 13.66]
200 nM	CC(Cc1ccc(C#Cc2cnc(NCc3ccccc3)nc2)cc1)NC(=O)C1CC1 (centres unmarked) [Example 13.54]
200 nM	CCNc1ncc(C#Cc2ccc(CC(C)NC(=O)N(C)C)cc2)cn1 (centres unmarked) [Example 13.26]
8500 nM	CCOc1nccc(C#Cc2ccc(CC(C)NC(C)=O)cc2)n1 (centres unmarked) [Example 12.1, N-(1-(4-((2-ethoxypyrimidin-4-yl)ethynyl)phenyl)propan-2-yl)acetamide]
280 nM	CCCCOc1ncc(C#Cc2ccc(CC(C)NC(C)=O)cc2)cn1 (centres unmarked) [Example 12.34]
1100 nM	C[C@H](NC(=O)C1CC1)c1ccc(C#Cc2cnc(OCCC(F)(F)F)nc2)cc1 [Example 12.63]
4400 nM	CCOc1ccc(C#Cc2ccc(CC(C)N(C)C(=O)CC)cc2)cc1 (centres unmarked) [Example 18.2]

IC50	Structure (SMILES)
5200 nM	CCNc1ncc(C#Cc2ccc(CC(C)NC(=O)C3CC3)cc2)cn1 (centres unmarked) [Example 13.52]
170 nM	CCCOc1ccc(C#Cc2ccc(CCNC(C)=O)cc2)cc1 [Example 14.37]
24700 nM	CCOc1ccc(C#Cc2ccc(CC(C)NC(=O)c3ncn[nH]3)cc2)cc1 (centres unmarked) [Example 4.60]
5900 nM	CC(=O)NC(C)Cc1ccc(C#Cc2ccnc(NC(C)C3CC3)n2)cc1 (centres unmarked) [Example 11.19]
70 nM	CC(=O)NCC(C)c1ccc(C#Cc2cnc(OC3CCC3)nc2)cc1 (centres unmarked) [Example 32.3]
7300 nM	CC(=O)N[C@@H](C)c1ccc(C#Cc2cnc(NCc3ccccc3)nc2)cc1 [Example 13.92]
620 nM	CC(=O)NC(C)Cc1ccc(C#Cc2ccnc(N3CCOCC3)n2)cc1 (centres unmarked) [Example 11.42]
640 nM	CC(Cc1ccc(C#Cc2cnc(OC3CCC3)nc2)cc1)NC(=O)C1CC1 (centres unmarked) [Example 12.22]
5600 nM	CCOc1ccc(C#Cc2ccc(CC(C)NC(=O)c3cocn3)cc2)cc1 (centres unmarked) [Example 4.56]
80 nM	CCOc1ccc(C#Cc2ccc(C[C@H](C)NC(C)=O)cc2)cn1 [Example 23.5]
450 nM	C[C@H](NC(=O)C1CC1)c1ccc(C#Cc2cnc(OC3CCC3)nc2)cc1 [Example 12.65]
600 nM	CC(Cc1ccc(C#Cc2cnc(NC3CCCC3)nc2)cc1)NC(=O)C1CC1 (centres unmarked) [Example 13.47]
120 nM	CCOc1ccc(C#Cc2ccc(CC(C)NC(=O)CC)cc2)cc1 (centres unmarked) [Example 4.7]
140 nM	CC(Cc1ccc(C#Cc2ccc(OCC3CC3)cc2)cc1)NC(=O)C1CC1 (centres unmarked) [Example 14.18]
690 nM	CC(=O)NC(C)Cc1ccc(C#Cc2ccnc(N3CCCC(C(F)(F)F)C3)n2)cc1 (centres unmarked) [Example 11.36]
440 nM	CC(Cc1ccc(C#Cc2ccc(OC(C)C)cc2)cc1)NC(=O)C1CC1 (centres unmarked) [Example 14.41]
6400 nM	COCCn1cncc1COc1ccc(C#Cc2ccc(CC(C)NC(C)=O)cc2)cc1 (centres unmarked) [Example 9.34]
1000 nM	CC(=O)NC(C)Cc1ccc(C#Cc2cnc(NCCc3ccccc3)nc2)cc1 (centres unmarked) [Example 13.87]
